Experimental data taken from patent US20250188092A1, “RIFAMYCIN ANALOGS” (THE REGENTS OF THE UNIVERSITY OF MICHIGAN, priority 2021, published 2025).
Converted amounts (≈) assume the structure as drawn.

Test system: non-replicating cultures of M. tuberculosis H37Rv transformed with lux ABCDE
Test: microbe, parasite or virus in culture
Type: cell-based, Mycobacterium tuberculosis
Settings: for MIC90 LORA/MABA: ratio of LORA MIC90 to MABA MIC90
[1] = Mycobacterium tuberculosis, H37RV, […], ≥90% reduction in luminescence, read-out: MIC90 LORA

SMILES | MIC90 LORA Rel to RMP | MIC [1] | MIC90 LORA/MABA | MIC90 [1]
CO[C@H]1/C=C/O[C@@]2(C)Oc3c(C)c(O)c4c(=O)c(c5oc6cccc(OCCCCN7CCN(C)CC7)c6nc-5c4c3C2=O)NC(=O)/C(C)=C\C=C\[C@H](C)[C@H](O)[C@@H](C)[C@@H](O)[C@@H](C)[C@H](OC(C)=O)[C@@H]1C [Compound 5a, (7S,9E,11S,12R,13S,14R,15R,16R,17S,18S,19E,21Z)-2,15,17-Trihydroxy-11-methoxy-3,7,12,14,16,18,22-heptamethyl-32-[4-(4-methylpiperazin-1-yl)butoxy]-6,23,37-trioxo-8,27,38-trioxa-24,34-diazahexacyclo[23.11.1.1^4,7.0^5,36.0^26,35.0^28,33]octatriaconta-1(36)2,4,9,19,21,25,28(33)29,31,34-undecaen-13-yl acetate] | 0.57 | 0.186 µM | 2.0 | 
CO[C@H]1/C=C/O[C@@]2(C)Oc3c(C)c(O)c4c(=O)c(c5oc6cccc(OCCCCN7CCOCC7)c6nc-5c4c3C2=O)NC(=O)/C(C)=C\C=C\[C@H](C)[C@H](O)[C@@H](C)[C@@H](O)[C@@H](C)[C@H](OC(C)=O)[C@@H]1C [Compound 5b, (7S,9E,11S,12R,13S,14R,15R,16R,17S,18S,19E,21Z)-2,15,17-Trihydroxy-11-methoxy-3,7,12,14,16,18,22-heptamethyl-32-[4-(morpholin-4-yl)butoxy]-6,23,37-trioxo-8,27,38-trioxa-24,34-diazahexacyclo[23.11.1.1^4,7.0^5,36.0^26,35.0^28,33]octatriaconta-1(36)2,4,9,19,21,25,28(33)29,31,34-undecaen-13-yl acetate] | 0.15 | 0.05 µM | 2.4 | 
CO[C@H]1/C=C/O[C@@]2(C)Oc3c(C)c(O)c4c(=O)c(c5oc6cccc(OCCCCN7CCN(C(=O)OC(C)(C)C)CC7)c6nc-5c4c3C2=O)NC(=O)/C(C)=C\C=C\[C@H](C)[C@H](O)[C@@H](C)[C@@H](O)[C@@H](C)[C@H](OC(C)=O)[C@@H]1C [Compound 5c, Tert-Butyl 4-(4-{[(7S,9E,11S,12R,13S,14R,15R,16R,17S,18S,19E,21Z)-13-(acetyloxy)-2,15,17-trihydroxy-11-methoxy-3,7,12,14,16,18,22-heptamethyl-6,23,37-trioxo-8,27,38-trioxa-24,34-diazahexacyclo[23.11.1.1^4,7.0^5,36.0^26,35.0^28,33]octatriaconta-1(36)2,4,9,19,21,25,28(33)29,31,34-undecaen-32-yl]oxy}butyl)piperazine-1-carboxylate] | 0.22 | 0.058 µM (≈ 0.0604 µg/mL) | 2.4 | 
CO[C@H]1/C=C/O[C@@]2(C)Oc3c(C)c(O)c4c(=O)c(c5oc6cc(N7CCN(CC(C)C)CC7)cc(OCCCCN7CCOCC7)c6nc-5c4c3C2=O)NC(=O)/C(C)=C\C=C\[C@H](C)[C@H](O)[C@@H](C)[C@@H](O)[C@@H](C)[C@H](OC(C)=O)[C@@H]1C [Compound 6a, (7S,9E,11S,12R,13S,14R,15R,16R,17S,18S,19E,21Z)-2,15,17-Trihydroxy-11-methoxy-3,7,12,14,16,18,22-heptamethyl-30-[4-(2-methylpropyl)piperazin-1-yl]-32-[4-(morpholin-4-yl)butoxy]-6,23,37-trioxo-8,27,38-trioxa-24,34-diazahexacyclo[23.11.1.1^4,7.0^5,36.0^26,35.0^28,33]octatriaconta-1(36)2,4,9,19,21,25,28(33)29,31,34-undecaen-13-yl acetate] | 0.07 | 0.186 µM | 2.0 | 
CO[C@H]1/C=C/O[C@@]2(C)Oc3c(C)c(O)c4c(=O)c(c5oc6cc(N7CCN(CC(C)C)CC7)cc(OCCCCN7CCN(CCn8ccnc8)CC7)c6nc-5c4c3C2=O)NC(=O)/C(C)=C\C=C\[C@H](C)[C@H](O)[C@@H](C)[C@@H](O)[C@@H](C)[C@H](OC(C)=O)[C@@H]1C [Compound 6b, (7S,9E,11S,12R,13S,14R,15R,16R,17S,18S,19E,21Z)-2,15,17-trihydroxy-32-(4-{4-[2-(1H-imidazol-1-yl)ethyl]piperazin-1-yl}butoxy)-11-methoxy-3,7,12,14,16,18,22-heptamethyl-30-[4-(2-methylpropyl)piperazin-1-yl]-6,23,37-trioxo-8,27,38-trioxa-24,34-diazahexacyclo[23.11.1.1^4,7.0^5,36.0^26,35.0^28,33]octatriaconta-1(36)2,4,9,19,21,25,28(33)29,31,34-undecaen-13-yl acetate] | 0.05 | 0.05 µM | 2.4 | 
CO[C@H]1/C=C/O[C@@]2(C)Oc3c(C)c(O)c4c(=O)c(c5oc6cc(N7CCN(C)CC7)cc(OCCCCN7CCN(C(=O)Cn8ccnc8)CC7)c6nc-5c4c3C2=O)NC(=O)/C(C)=C\C=C\[C@H](C)[C@H](O)[C@@H](C)[C@@H](O)[C@@H](C)[C@H](OC(C)=O)[C@@H]1C [Compound 6c, (7S,9E,11S,12R,13S,14R,15R,16R,17S,18S,19E,21Z)-2,15,17-Trihydroxy-32-(4-{4-[2-(1H-imidazol-1-yl)acetyl]piperazin-1-yl}butoxy)-11-methoxy-3,7,12,14,16,18,22-heptamethyl-30-(4-methylpiperazin-1-yl)-6,23,37-trioxo-8,27,38-trioxa-24,34-diazahexacyclo[23.11.1.1^4,7.0^5,36.0^26,35.0^28,33]octatriaconta-1(36)2,4,9,19,21,25,28(33)29,31,34-undecaen-13-yl acetate] | 0.14 | 0.021 µM | 0.5 | 
CO[C@H]1/C=C/O[C@@]2(C)Oc3c(C)c(O)c4c(=O)c(c5oc6cc(N7CCN(CC(C)C)CC7)cc(OCCCCN7CCN(C(=O)Cn8ccnc8)CC7)c6nc-5c4c3C2=O)NC(=O)/C(C)=C\C=C\[C@H](C)[C@H](O)[C@@H](C)[C@@H](O)[C@@H](C)[C@H](OC(C)=O)[C@@H]1C [Compound 6d, (7S,9E,11S,12R,13S,14R,15R,16R,17S,18S,19E,21Z)-2,15,17-Trihydroxy-32-(4-{4-[2-(1H-imidazol-1-yl)acetyl]piperazin-1-yl}butoxy)-11-methoxy-3,7,12,14,16,18,22-heptamethyl-30-[4-(2-methylpropyl)piperazin-1-yl]-6,23,37-trioxo-8,27,38-trioxa-24,34-diazahexacyclo[23.11.1.1^4,7.0^5,36.0^26,35.0^28,33]octatriaconta-1(36)2,4,9,19,21,25,28,30,32,34-undecaen-13-yl acetate] | 0.06 | 0.058 µM | 2.4 | 
CO[C@H]1/C=C/O[C@@]2(C)Oc3c(C)c(O)c4c(=O)c(c5oc6cccc(OCc7cccc(CN8CCN(C(C)=O)CC8)c7)c6nc-5c4c3C2=O)NC(=O)/C(C)=C\C=C\[C@H](C)[C@H](O)[C@@H](C)[C@@H](O)[C@@H](C)[C@H](OC(C)=O)[C@@H]1C [Compound 11c, (7S,9E,11S,12R,13S,14R,15R,16R,17S,18S,19E,21Z)-32-({3-[(4-Acetylpiperazin-1-yl)methyl]phenyl}methoxy)-2,15,17-trihydroxy-11-methoxy-3,7,12,14,16,18,22-heptamethyl-6,23,37-trioxo-8,27,38-trioxa-24,34-diazahexacyclo-[23.11.1.1^4,7.0^5,36.0^26,35.0^28,33]octatriaconta-1(36)2,4,9,19,21,25,28,30,32,34-undecaen-13-yl acetate] | 0.53 |  | 2.1 | 0.123 µM
CO[C@H]1/C=C/O[C@@]2(C)Oc3c(C)c(O)c4c(=O)c(c5oc6cccc(OCc7cccc(CN8CCN(C(=O)Cn9ccnc9)CC8)c7)c6nc-5c4c3C2=O)NC(=O)/C(C)=C\C=C\[C@H](C)[C@H](O)[C@@H](C)[C@@H](O)[C@@H](C)[C@H](OC(C)=O)[C@@H]1C [Compound 11e, (7S,9E,11S,12R,13S,14R,15R,16R,17S,18S,19E,21Z)-2,15,17-Trihydroxy-32-{[3-({4-[2-(1H-imidazol-1-yl)acetyl]piperazin-1-yl}methyl)phenyl]methoxy}-11-methoxy-3,7,12,14,16,18,22-heptamethyl-6,23,37-trioxo-8,27,38-trioxa-24,34-diazahexacyclo[23.11.1.1^4,7.0^5,36.0^26,35.0^28,33]octatriaconta-1(36)2,4,9,19,21,25,28,30,32,34-undecaen-13-yl acetate] | 0.26 | 0.078 µM | 1.6 | 
CO[C@H]1/C=C/O[C@@]2(C)Oc3c(C)c(O)c4c(=O)c(c5oc6cccc(OCc7ccc(CN8CCN(C(=O)Cn9ccnc9)CC8)cc7)c6nc-5c4c3C2=O)NC(=O)/C(C)=C\C=C\[C@H](C)[C@H](O)[C@@H](C)[C@@H](O)[C@@H](C)[C@H](OC(C)=O)[C@@H]1C [Compound 16b, (7S,9E,11S,12R,13S,14R,15R,16R,17S,18S,19E,21Z)-2,15,17-Trihydroxy-32-{[4-({4-[2-(1H-imidazol-1-yl)acetyl]piperazin-1-yl}methyl)phenyl]methoxy}-11-methoxy-3,7,12,14,16,18,22-heptamethyl-6,23,37-trioxo-8,27,38-trioxa-24,34-diazahexacyclo[23.11.1.1^4,7.0^5,36.0^26,35.0^28,33]octatriaconta-1(36)2,4,9,19,21,25,28,30,32,34-undecaen-13-yl acetate] | 0.93 | 0.057 µM | 2.0 | 
CO[C@H]1/C=C/O[C@@]2(C)Oc3c(C)c(O)c4c(=O)c(c5oc6cc(N7CCN(CC(C)C)CC7)cc(OCc7ccc(CN8CCNCC8)cc7)c6nc-5c4c3C2=O)NC(=O)/C(C)=C\C=C\[C@H](C)[C@H](O)[C@@H](C)[C@@H](O)[C@@H](C)[C@H](OC(C)=O)[C@@H]1C [Compound 17b, (7S,9E,11S,12R,13S,14R,15R,16R,17S,18S,19E,21Z)-2,15,17-Trihydroxy-11-methoxy-3,7,12,14,16,18,22-heptamethyl-30-[4-(2-methylpropyl)piperazin-1-yl]-6,23,37-trioxo-32-({4-[(piperazin-1-yl)methyl]phenyl}methoxy)-8,27,38-trioxa-24,34-diazahexacyclo[23.11.1.1^4,7.0^5,36.0^26,35.0^28,33]octatriaconta-1(36)2,4,9,19,21,25,28,30,32,34-undecaen-13-yl acetate] | 1.3 | < 0.016 µM |  | 
